Assay results from patent US20070134261A1, “Effectors of innate immunity” (priority 2001, published 2007).
Several values for one entry are separate records, joined by “and”; a condition that tells them apart may be missing. Identical values can stand only once.

System: human A549 epithelial cells
Assay: Resgen Human cDNA arrays (PRHU03-S3) of A549 cells treated with peptide (Tables 21-26)
Conditions: 50 μg/ml, 4 h

CC[C@H](C)[C@H](N)C(=O)N[C@@H](CC(C)C)C(=O)N1CCC[C@H]1C(=O)N[C@@H](Cc1c[nH]c2ccccc12)C(=O)N[C@@H](CCCCN)C(=O)N[C@@H](Cc1c[nH]c2ccccc12)C(=O)N1CCC[C@H]1C(=O)N[C@@H](Cc1c[nH]c2ccccc12)C(=O)N[C@@H](Cc1c[nH]c2ccccc12)C(=O)N1CCC[C@H]1C(=O)N[C@@H](Cc1c[nH]c2ccccc12)C(=O)N[C@@H](CCCNC(=N)N)C(=O)N[C@@H](CCCNC(=N)N)C(N)=O [SEQ ID NO: 2]
Ratio Peptide:Unstimulated, small inducible cytokine subfamily A (Cys—Cys), member 20 (AI285199): 0.19 | Ratio Peptide:Unstimulated, TLR 1 (AI339155): 0.35 | Ratio Peptide:Unstimulated, disintegrin-like and metalloprotease with thrombospondin type 1 motif, 5 (AI375048): 0.39 | Ratio Peptide:Unstimulated, killer cell lectin-like receptor subfamily G, member 1 (AI433079): 2.3 | Ratio Peptide:Unstimulated, apoptosis antagonizing transcription factor (AI439571): 0.28 | Ratio Peptide:Unstimulated, T-cell receptor interacting molecule (AI453185): 0.41 | Ratio Peptide:Unstimulated, TGFB inducible early growth response 2 (AI473938, listed as ID 2): 2.4 and 2.38 | Ratio Peptide:Unstimulated, MAP kinase kinase kinase 1 (AI538525): 0.61 | Ratio Peptide:Unstimulated, protocadherin 12 (AI652584): 14.8 | Ratio Peptide:Unstimulated, protein tyrosine phosphatase, non-receptor type 18 (AI668897): 3.2 | Ratio Peptide:Unstimulated, Fc fragment of IgE, high affinity I, receptor for; alpha polypeptide (AI676097): 0.43 | Ratio Peptide:Unstimulated, G protein-coupled receptor 4 (AI719098): 3.7 | Ratio Peptide:Unstimulated, peroxisome proliferative activated receptor, alpha (AI739498): 0.38 | Ratio Peptide:Unstimulated, cadherin 12, type 2 (N-cadherin 2) (AI740827): 13 | Ratio Peptide:Unstimulated, complement component C1q receptor (AI761788): 0.46 | Ratio Peptide:Unstimulated, small inducible cytokine subfamily B (Cys-X-Cys), member 6 (granulocyte chemotactic protein 2) (AI889554): 0.11 | Ratio Peptide:Unstimulated, small inducible cytokine subfamily A (Cys—Cys), member 21 (AI922341): 3.9 | Ratio Peptide:Unstimulated, protein tyrosine phosphatase, receptor type, H (AI924306): 0.11 | Ratio Peptide:Unstimulated, tyrosine kinase, non-receptor, 1 (AI936324): 7.8 | Ratio Peptide:Unstimulated, MAP kinase 12 (AI936909): 2.1 | Ratio Peptide:Unstimulated, G protein-coupled receptor 17 (AI953187): 0.32 | Ratio Peptide:Unstimulated, apoptosis inhibitor 5 (AI972925): 2.8 | Ratio Peptide:Unstimulated, IL-17 R (AW029299): 2.1 | Ratio Peptide:Unstimulated, MAP kinase kinase kinase 6 (AW084649): 0.37 | Ratio Peptide:Unstimulated (C-type lectin-like receptor-2 (H70491)): 2.09 | Ratio Peptide:Unstimulated (CCR6 (N57964)): 4.51 | Ratio Peptide:Unstimulated (CD31 (PECAM) (R22412)): 2.71 | Ratio Peptide:Unstimulated, selectin L (lymphocyte adhesion molecule 1) (H00662): 0.03 | Ratio Peptide:Unstimulated, MAP kinase kinase kinase 10 (H01340): 1.23 | Ratio Peptide:Unstimulated, protein tyrosine phosphatase, non-receptor type 21 (H03504): 0.94 | Ratio Peptide:Unstimulated, MAP kinase kinase 6 (H07920, listed as ID 2): 18 and 17.83 | Ratio Peptide:Unstimulated, disintegrin and metalloproteinase domain 23 (H11006): 1.9 | Ratio Peptide:Unstimulated, vascular cell adhesion molecule 1 (H16591): 0.20 | Ratio Peptide:Unstimulated, leukocyte immunoglobulin-like receptor, subfamily B (H54023): 0.35 | Ratio Peptide:Unstimulated, disintegrin and metalloproteinase domain 9 (H59231): 1.1 | Ratio Peptide:Unstimulated, TGF beta receptor III (H62473): 0.91 | Ratio Peptide:Unstimulated, regulator of G-protein signaling 13 (H70047): 0.54 | Ratio Peptide:Unstimulated, C-type lectin-like receptor-2 (H70491): 2.1 | Ratio Peptide:Unstimulated, vasoactive intestinal peptide receptor 1 (H73241): 0.43 | Ratio Peptide:Unstimulated, protein tyrosine phosphatase, receptor type, C (H74265): 0.44 | Ratio Peptide:Unstimulated, protein tyrosine phosphatase, receptor type, A (H82419): 4.0 | Ratio Peptide:Unstimulated, G protein-coupled receptor 75 (H84878): 5.2 | Ratio Peptide:Unstimulated, cadherin 1, type 1, E-cadherin epithelial (H97778): 8.1 | Ratio Peptide:Unstimulated, TNF R superfamily, member 5 (CD40LR) (H98636, listed as ID 2): 3.0 and 2.98 | Ratio Peptide:Unstimulated (IL-11 Rα (AA454657)): 2.39 | Ratio Peptide:Unstimulated (IL-17 R (AW029299)): 2.05 | Ratio Peptide:Unstimulated (MAP kinase 9 (AA157286)): 0.57 | Ratio Peptide:Unstimulated, TLR 7 (N30597): 0.13 | Ratio Peptide:Unstimulated, CD36 (N39161): 8.2 | Ratio Peptide:Unstimulated, TLR 5 (N41021): 0.12 | Ratio Peptide:Unstimulated, protein tyrosine phosphatase, receptor type, f polypeptide (PTPRF), interacting protein (liprin), α1 (N49751): 0.43 | Ratio Peptide:Unstimulated, IL-2 receptor, gamma (severe combined immunodeficiency) (N54821): 0.30 | Ratio Peptide:Unstimulated, adenosine A2a R (N57553): 3.1 | Ratio Peptide:Unstimulated, CCR6 (N57964): 4.5 | Ratio Peptide:Unstimulated, G protein-coupled receptor 55 (N58443): 19 | Ratio Peptide:Unstimulated, G protein-coupled receptor 85 (N62306): 6.8 | Ratio Peptide:Unstimulated, leukocyte immunoglobulin-like receptor, subfamily A (N63398): 0.44 | Ratio Peptide:Unstimulated, receptor tyrosine kinase-like orphan receptor 2 (N94921): 7.3 | Ratio Peptide:Unstimulated, CD31 (R22412): 2.7 | Ratio Peptide:Unstimulated, IK cytokine, down-regulator of HLA II (R39227, listed as ID 2): 3.1 and 3.11 | Ratio Peptide:Unstimulated, cell adhesion molecule (R40400): 4.0 | Ratio Peptide:Unstimulated, cadherin 13, H-cadherin (heart) (R41787): 0.37 | Ratio Peptide:Unstimulated, diphtheria toxin receptor (heparin-binding epidermal growth factor-like growth factor) (R45640): 0.49 | Ratio Peptide:Unstimulated, protein tyrosine phosphatase, receptor type, T (R52794): 1.2 | Ratio Peptide:Unstimulated, PDGF R beta polypeptide (R56211): 2.5 | Ratio Peptide:Unstimulated, interleukin enhancer binding factor 1 (R56553): 2.7 | Ratio Peptide:Unstimulated, Fc fragment of IgG, low affinity IIb, receptor for (CD32) (R68106): 0.27 | Ratio Peptide:Unstimulated, MAP kinase kinase kinase 11 (R80779): 0.65 | Ratio Peptide:Unstimulated, protocadherin gamma subfamily C, 3 (R89615): 3.0 | Ratio Peptide:Unstimulated, G protein-coupled receptor (R91916): 1.84 | Ratio Peptide:Unstimulated, TNF receptor-associated factor 2 (T55353): 1.22 | Ratio Peptide:Unstimulated, TLR 2 (T57791): 0.52 | Ratio Peptide:Unstimulated, caspase 1, apoptosis-related cysteine protease (interleukin 1, beta, convertase) (T95052): 0.44 | Ratio Peptide:Unstimulated, BMP R type IA (W15390): 1.9 | Ratio Peptide:Unstimulated, caspase 6, apoptosis-related cysteine protease (W45688): 0.7 | Ratio Peptide:Unstimulated, MAP kinase kinase kinase 8 (W56266): 1.52 | Ratio Peptide:Unstimulated, integrin, beta 8 (W56754): 0.10 | Ratio Peptide:Unstimulated, MAP kinase kinase kinase 14 (W61116): 0.34 | Ratio Peptide:Unstimulated, integrin, beta 1 (W67174): 2.1 | Ratio Peptide:Unstimulated, MAP kinase-activated protein kinase 3 (W68281, listed as ID 2): 2.1 and 2.13 | Ratio Peptide:Unstimulated, MAP kinase kinase 5 (W69649): 3.0 | Ratio Peptide:Unstimulated, TNF receptor superfamily, member 12 (W71984): 0.59 | Ratio Peptide:Unstimulated, killer cell lectin-like receptor subfamily C, member 3 (W93370): 3.2 | Ratio Peptide:Unstimulated, Mouse Mammary Turmor Virus Receptor homolog (W93891): 6.9 | Ratio Peptide:Unstimulated (integrin, alpha 2 (CD49B) (AA463257)): 0.89 | Ratio Peptide:Unstimulated (integrin, alpha 3 (antigen CD49C) (AA424695)): 0.79 | Ratio Peptide:Unstimulated (integrin, alpha E (AA425451)): 179.33 | Ratio Peptide:Unstimulated (integrin, beta 4 (AA485668)): 0.79 | Ratio Peptide:Unstimulated (small inducible cytokine subfamily A, member 21 (AI922341)): 3.88
